Data published in patent publication US20230227453A1 (priority 2020, published 2023).

Experiments:
[1] = molecular target: T1, 5-HT2C edited (accession number AAF35842.1) (Homo sapiens, UniProt P28335, I156V/I160V/N158S); test: biochemical; format: binding
Target sequence in this assay (P28335 whole entry I156V/N158S/I160V, looked up): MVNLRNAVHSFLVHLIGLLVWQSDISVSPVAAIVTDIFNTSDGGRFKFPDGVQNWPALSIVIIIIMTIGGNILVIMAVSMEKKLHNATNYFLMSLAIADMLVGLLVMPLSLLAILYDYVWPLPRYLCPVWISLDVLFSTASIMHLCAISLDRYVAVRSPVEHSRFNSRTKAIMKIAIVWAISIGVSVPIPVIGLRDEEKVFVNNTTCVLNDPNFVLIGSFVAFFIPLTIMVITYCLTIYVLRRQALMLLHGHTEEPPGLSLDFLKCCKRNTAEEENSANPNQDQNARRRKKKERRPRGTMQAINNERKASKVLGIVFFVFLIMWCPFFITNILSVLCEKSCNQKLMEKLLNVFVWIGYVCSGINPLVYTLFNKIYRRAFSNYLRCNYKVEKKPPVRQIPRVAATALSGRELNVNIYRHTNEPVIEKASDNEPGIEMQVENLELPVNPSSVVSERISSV

[2] = molecular target: T1, 5-HT2C edited (accession number AAF35842.1); test: cell-based
Target sequence in this assay (P28335 33-458 I156V/N158S/I160V limits assumed): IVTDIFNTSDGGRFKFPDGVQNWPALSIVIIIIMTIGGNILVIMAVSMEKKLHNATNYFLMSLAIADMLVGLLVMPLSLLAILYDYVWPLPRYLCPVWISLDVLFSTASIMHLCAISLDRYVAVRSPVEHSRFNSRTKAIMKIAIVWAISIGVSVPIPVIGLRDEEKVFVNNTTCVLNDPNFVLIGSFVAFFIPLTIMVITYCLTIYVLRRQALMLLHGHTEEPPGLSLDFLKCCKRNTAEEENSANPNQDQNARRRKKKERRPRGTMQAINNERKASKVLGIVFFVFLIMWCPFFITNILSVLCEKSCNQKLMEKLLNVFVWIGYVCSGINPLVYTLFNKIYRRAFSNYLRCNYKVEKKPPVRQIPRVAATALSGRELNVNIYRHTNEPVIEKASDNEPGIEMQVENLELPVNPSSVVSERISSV

| SMILES | IC50 [1] | EC50 [2] |
| --- | --- | --- |
| Cn1c2c(c3ccc(Br)nc31)CCNCC2 [Example 25, 2-bromo-10-methyl-5,6,7,8,9,10-hexahydropyrido[3′,2′:4,5]pyrrolo[2,3-d]azepine] | 0.01 to 0.1 µM | < 0.01 µM |
| Cn1c2c(c3cc(Cl)cnc31)CCN(C1COC1)CC2 [Example 29, 3-chloro-10-methyl-7-(oxetan-3-yl)-5,6,7,8,9,10-hexahydropyrido[3′,2′:4,5]pyrrolo[2,3-d]azepine] | 1 to 10 µM | 1 to 10 µM |
| Cc1ccc2c3c(n(C)c2n1)CCN(C)CC3 [Example 12, 2,7,10-trimethyl-5,6,7,8,9,10-hexahydropyrido[3′,2′:4,5]pyrrolo[2,3-d]azepine] | 0.101 to 1 µM | 0.101 to 1 µM |
| Brc1ccc2c3c([nH]c2n1)CCNCC3 [Example 16, 2-bromo-5,6,7,8,9,10-hexahydropyrido[3′,2′:4,5]pyrrolo[2,3-d]azepine] | 0.01 to 0.1 µM | < 0.01 µM |
| Cn1c2c(c3cccnc31)CCN(C1COC1)CC2 [Example 23, 10-methyl-7-(oxetan-3-yl)-5,6,7,8,9,10-hexahydropyrido[3′,2′:4,5]pyrrolo[2,3-d]azepine] | 1 to 10 µM | 1 to 10 µM |
| Cc1ccc2c3c([nH]c2n1)CCN(C)CC3 [Example 7, 2,7-dimethyl-5,6,7,8,9,10-hexahydropyrido[3′,2′:4,5]pyrrolo[2,3-d]azepine] | 0.101 to 1 µM | 0.101 to 1 µM |
| COc1ccc2c3c([nH]c2n1)CCN(C1COC1)CC3 [Example 4, 2-methoxy-7-(oxetan-3-yl)-5,6,7,8,9,10 hexahydropyrido[3′,2′:4,5]pyrrolo[2,3-d]azepine] | > 10 µM | > 10 µM |
| Cc1ccc2c3c(n(C)c2n1)CCN(C1COC1)CC3 [Example 11, 2,10-dimethyl-7-(oxetan-3-yl)-5,6,7,8,9,10-hexahydropyrido[3′,2′:4,5]pyrrolo[2,3-d]azepine] | 1 to 10 µM | > 10 µM |
| Brc1ccc2c3c([nH]c2n1)CCN(C1COC1)CC3 [Example 24, 2-bromo-7-(oxetan-3-yl)-5,6,7,8,9,10-hexahydropyrido[3′,2′:4,5]pyrrolo[2,3-d]azepine] | 0.101 to 1 µM | 0.101 to 1 µM |
| Clc1cnc2[nH]c3c(c2c1)CCN(C1COC1)CC3 [Example 27, 3-chloro-7-(oxetan-3-yl)-5,6,7,8,9,10-hexahydropyrido[3′,2′:4,5]pyrrolo[2,3-d]azepine] | 0.101 to 1 µM | 0.101 to 1 µM |
| Cc1ccc2c3c([nH]c2n1)CCN(C1COC1)CC3 [Example 9, 2-methyl-7-(oxetan-3-yl)-5,6,7,8,9,10-hexahydropyrido[3′,2′:4,5]pyrrolo[2,3-d]azepine] | > 10 µM | > 10 µM |
| COc1ccc2c3c([nH]c2n1)CCNCC3 [Example 2, 2-methoxy-5,6,7,8,9,10-hexahydropyrido[3′,2′:4,5]pyrrolo[2,3-d]azepine] | 0.101 to 1 µM | 0.01 to 0.1 µM |
| COc1ccc2[nH]c3c(c2n1)CCN(C)CC3 [Example 15, 2-methoxy-8-methyl-5,6,7,8,9,10-hexahydropyrido[2′,3′:4,5]pyrrolo[2,3-d]azepine] | 0.01 to 0.1 µM | 0.01 to 0.1 µM |
| Cc1ccc2c3c(n(C)c2n1)CCNCC3 [Example 10, 2,10-dimethyl-5,6,7,8,9,10-hexahydropyrido[3′,2′:4,5]pyrrolo[2,3-d]azepine] | 0.101 to 1 µM | 0.01 to 0.1 µM |
| Clc1cnc2[nH]c3c(c2c1)CCNCC3 [Example 13, 3-chloro-5,6,7,8,9,10-hexahydropyrido[3′,2′:4,5]pyrrolo[2,3-d] azepine] | 0.01 to 0.1 µM | < 0.01 µM |
| Cn1c2c(c3cc(Cl)cnc31)CCNCC2 [Example 28, 3-chloro-10-methyl-5,6,7,8,9,10-hexahydropyrido[3′,2′:4,5]pyrrolo[2,3-d]azepine] | 0.01 to 0.1 µM | 0.01 to 0.1 µM |
| c1cnc2[nH]c3c(c2c1)CCNCC3 [Example 17, 5,6,7,8,9,10-hexahydropyrido[3′,2′:4,5] pyrrolo[2,3-d] azepine] | 0.01 to 0.1 µM | < 0.01 µM |
| Cc1ccc2c3c([nH]c2n1)CCNCC3 [Example 8, 2-methyl-5,6,7,8,9,10-hexahydropyrido[3′,2′:4,5]pyrrolo[2,3-d]azepine] | 0.101 to 1 µM | 0.01 to 0.1 µM |
| Cn1c2c(c3cccnc31)CCNCC2 [Example 18, 10-methyl-5,6,7,8,9,10-hexahydropyrido[3′,2′:4,5]pyrrolo[2,3-d]azepine] | 0.01 to 0.1 µM | < 0.01 µM |
| CN1CCc2[nH]c3ncccc3c2CC1 [Example 20, 7-methyl-5,6,7,8,9,10-hexahydropyrido[3′,2′:4,5]pyrrolo[2,3-d]azepine] | 0.01 to 0.1 µM | 0.01 to 0.1 µM |
| CN1CCc2[nH]c3nc(Br)ccc3c2CC1 [Example 19, 2-bromo-7-methyl-5,6,7,8,9,10-hexahydropyrido[3′,2′:4,5]pyrrolo[2,3-d]azepine] | 0.101 to 1 µM | 0.01 to 0.1 µM |
| CN1CCc2[nH]c3ncc(Cl)cc3c2CC1 [Example 26, 3-chloro-7-methyl-5,6,7,8,9,10-hexahydropyrido[3′,2′:4,5]pyrrolo[2,3-d]azepine] | 0.01 to 0.1 µM | 0.01 to 0.1 µM |
| COc1ccc2c3c(n(C)c2n1)CCNCC3 [Example 5, 2-methoxy-10-methyl-5,6,7,8,9,10-hexahydropyrido[3′,2′:4,5]pyrrolo[2,3-d]azepine] | 0.01 to 0.1 µM | 0.01 to 0.1 µM |
| COc1ccc2c3c([nH]c2n1)CCN(C)CC3 [Example 1, 2-methoxy-7-methyl-5,6,7,8,9,10-hexahydropyrido[3′,2′:4,5]pyrrolo[2,3-d]azepine] | 1 to 10 µM | 0.101 to 1 µM |
| CN1CCc2c(n(C)c3ncccc23)CC1 [Example 21, 7,10-dimethyl-5,6,7,8,9,10-hexahydropyrido[3′,2′:4,5]pyrrolo[2,3-d]azepine] | 0.01 to 0.1 µM | 0.01 to 0.1 µM |
| c1cnc2[nH]c3c(c2c1)CCN(C1COC1)CC3 [Example 22, 7-(oxetan-3-yl)-5,6,7,8,9,10-hexahydropyrido[3′,2′:4,5]pyrrolo[2,3-d]azepine] | > 10 µM | 1 to 10 µM |
| COc1ccc2c3c(n(C)c2n1)CCN(C1COC1)CC3 [Example 6, 2-methoxy-10-methyl-7-(oxetan-3-yl)-5,6,7,8,9,10-hexahydropyrido[3′,2′:4,5]pyrrolo[2,3-d]azepine] | 1 to 10 µM | 0.101 to 1 µM |
| COc1ccc2c3c(n(C)c2n1)CCN(C)CC3 [Example 3, 2-methoxy-7,10-dimethyl-5,6,7,8,9,10-hexahydropyrido[3′,2′:4,5]pyrrolo[2,3-d]azepine] | 0.101 to 1 µM | 0.101 to 1 µM |
| CN1CCc2c(n(C)c3ncc(Cl)cc23)CC1 [Example 30, 3-chloro-7,10-dimethyl-5,6,7,8,9,10-hexahydropyrido[3′,2′:4,5]pyrrolo[2,3-d]azepine] | 0.01 to 0.1 µM | 0.01 to 0.1 µM |
| COc1cc2c3c([nH]c2cn1)CCN(C)CC3 [Example 14, 3-methoxy-7-methyl-5,6,7,8,9,10-hexahydropyrido[4′,3′:4,5]pyrrolo[2,3-d]azepine] | > 10 µM | > 10 µM |
